Laboratory results reported in patent US20210023223A1, “HYDROCARBON / LIPID - CAROTENOID COMPLEXES” (IP SCIENCE LIMITED, priority 2018, published 2021).

Assays:
[1] = Size of lipid droplets of dairy butter, microscopy; format: physicochemical
Description: (§1) For measurement of lipid droplets and fat globules and quantification of their size binocular microscope Olympus BX41 was used with Cell^B software for morphometric analysis. All parameters were collected from 10 randomly selected microscopic fields at ×1000).
Incorporation of lycopene into the butter led to a significant increase in the size of its lipid droplets and many reached more than 100 or even 300 fold of their diameter. This effect was dose-dependent, and can already be observed for less than 1 molecule of lycopene to 224,000 molecules of butter triglycerides.

[2] = Size of pork fat globules, microscopy; format: physicochemical
Method: as §1
When carotenoids were added to animal fat, with a relatively high percentage of saturated fatty acid, a similar trend in increased fat globules was observed, although to a lesser degree. The maximum doses of lycopene or astaxanthin caused a similar increase in the pork fat globules diameter, only 50%, FIG. 2 and table 3.

[3] = Size of beef fat globules, microscopy; format: physicochemical
Description: as §1, with “×1000). In case of beef fat, lycopene incorporation led to a smaller increase of its fat globules, only by 30%, FIG. 3.” for “×1000).”

[4] = Spreadability of fat drops on hard surface (viscosity); format: physicochemical
Method: The described above enlargement of lipid droplets or fat globules, caused by carotenoids, translated into reduction of the viscosity of their product. This could be visually observed without any instrumentation—the larger surface area is covered by spreading a drop of oil or molten fat to lower the viscosity of this food mass.
When astaxanthin was added to the dairy butter reduction its viscosity could be visually observed After measuring and comparing the size of the spread drops this decrease was estimated to be about 3, (FIG. 5).

[5] = Oil volume needed to cover water surface; format: physicochemical; conditions: 100 ml water sample; unmodified oil 21.5 ml
Description: The other way to assess changes in oil viscosity, caused by carotenoids, would be to measure how much oil would be needed to cover a water surface of the same size. The lower viscosity of the oil the more spreadable it will be, and consequently less of it would be needed to cover this surface. Therefore, by measuring how much oil would be required to cover a certain surface of water we can asses how deep changes in the lipid folding were made by incorporating carotenoids.
An additional nine heating experiments were carried out when either pure Napolina olive oil, Napolina olive oil containing Astaxanthin (7 mg/ml), or Napolina olive oil containing Lycopene (7 mg/ml) was carefully poured over the surface of the water in order to prevent evaporation. The amount of oil required to completely cover the surface of the 100 ml water sample in the cup (diameter—7.4 cm) was measured (15 ml Falcon laboratory tubes and 1 ml Pipetman pitettes were used) and recorded for each oil type. The thickness of the resulting oil film (necessary to completely cover water surface) was then calculated. Temperature change curves were compared for uncovered water and water samples overlayed with three varieties of oil at heating temperatures of 200° C., 250° C. and 300° C. Water samples overlaid with oils were heated until water reached boiling point (usually at 99° C.). […]

Melting time at 37° C. [6] = format: physicochemical; conditions: 0.3 mg per 1 g of butter
Method: (§2) Approximately 20 mg of butter, or pork fat, or beef fat, or cocoa butter, or chocolate, with or without certain concentrations of carotenoids, were placed on the surface of the laboratory slides and incubated at 37° C. in a laboratory incubator (TLK39).

Melting time at 37° C. [7] = format: physicochemical; conditions: 1 mg per 1 g of the chocolate; control 19 minutes
Method: as §2
Results presented in FIG. 15 show three different carotenoids—lycopene, lutein and astaxanthin, can reduce, albeit to a different degree, the melting time of dark chocolate regardless of its tempering protocols: Protocol I—28° C., Protocol II—29° C., Protocol III—30° C.

[8] = Defrosting time of frozen oil; format: physicochemical
Method: To determined defrosting time, frozen oil aliquots of 200 μI were incubated at ambient temperature of 20±2 C° until they were completely melted. Period of time, which was required for the tested sample to be melted, was measured with a laboratory timer (QUANTUM).

[9] = Heating olive oil-in-water emulsions; format: physicochemical
[10] = tested on: healthy volunteers, facial skin; test: Astaxanthin trial, residual skin surface components (RSSC); format: in vivo, human; conditions: 4 mg daily, 4 weeks
Method: Group I—31 (17 male and 14 female subjects, 40-80 years of age) for astaxanthin intervention;
Group I—participants received 4 mg daily doses of formulated astaxanthin,
Daily dose of each carotenoid product was taken in one capsule with the main evening meal for 4 weeks (from day 1 to day 28 of the study).
For RSSC sample collection all participants of the study were requested to avoid facial hygienic manipulations for 24 hours before material collection, which was carried out in the morning. These samples were collected only before initiation of astaxanthin supplementation (day 0) and at the end of the study (day 29). RSSC sample collection and preparation was performed according to previously described procedures. Briefly, RSSC samples were collected using polyester swabs from the surface of the facial skin (the sides of the nose). During the procedure two samples were taken (one swab per side). Each collected sample was placed on the surface of a microscope slide. A second microscope slide was pressed against the surface of the first one. […] All slides with collected samples (i.e. four slides per study participant per time point) were coded to provide sample anonymity for blinded analysis. All collected samples were sent to the laboratory of Lycotec Ltd for further processing and eventual microscopic examination.
For morphological analysis of RSSC samples one slide of the first pair was stained with hematoxylin and eosin in order to identify any cells or cell remnants. The second slide was stained using Oil Red O (Lipid Stain, ab150678, Abcam, Cambridge, UK) for lipid visualization and lipid droplet size evaluation. One slide from the other pair was stained with crystal violet solution (Gram staining) to assess the level of microorganism presence. The remaining slides were kept unstained for possible future use.
All stained smears were examined microscopically by a highly experienced cytopathologist. Microscopy was performed using Olympus BX41 laboratory microscope (Olympus, Japan) at ×1000 magnification.
The analysis included examining 40 fields of view within one smear. Dark field microscopy was applied for lipid crystal visualization. […]
The analysis of typical structural elements of the RSSC comprised lipid droplet measurements, counting characteristic lipid crystals and desquamated corneocytes, and evaluation of bacterial presence as previously described. The indicated micro objects/structures were quantified using Cell^B imaging software (Digital Imaging Solutions, Olympus, Japan). […]
In the morphological analysis of the RSSC quantitatively assessed parameters comprised lipid droplet size, numbers of desquamated corneocytes and lipid crystals and bacterial presence estimates (using Bacterial Presence Assessment Scale as described in our previous paper).

CC1=C(/C=C/C(C)=C/C=C/C(C)=C/C=C/C=C(C)/C=C/C=C(C)/C=C/C2=C(C)C(=O)[C@@H](O)CC2(C)C)C(C)(C)C[C@H](O)C1=O [Astaxanthin, astaxanthin]
Size of butter lipid droplets, Mean ([1]; astaxanthin dose 0.1 per 30 g of butter): 7.44 µm
Size of butter lipid droplets, Mean ([1]; astaxanthin dose 0.5 per 30 g of butter): 9.23 µm
Size of butter lipid droplets, Mean ([1]; astaxanthin dose 1.0 per 30 g of butter): 12.4 µm
Size of butter lipid droplets, Mean ([1]; astaxanthin dose 2.0 per 30 g of butter): 14.7 µm
Size of butter lipid droplets, Mean ([1]; astaxanthin dose 3.5 per 30 g of butter): 12.2 µm
Size of butter lipid droplets, Mean ([1]; astaxanthin dose 7.0 per 30 g of butter): 25 µm
Size of butter lipid droplets, Mean ([1]; astaxanthin dose 10.0 per 30 g of butter): 34.1 µm
Size of pork fat globules, Mean ([2]; astaxanthin dose 0.1 per 30 g of pork fat): 5.687 μm
Size of pork fat globules, Mean ([2]; astaxanthin dose 0.5 per 30 g of pork fat): 4.937 μm
Size of pork fat globules, Mean ([2]; astaxanthin dose 1.0 per 30 g of pork fat): 5.333 μm
Size of pork fat globules, Mean ([2]; astaxanthin dose 2.0 per 30 g of pork fat): 6.812 μm
Size of pork fat globules, Mean ([2]; astaxanthin dose 3.5 per 30 g of pork fat): 8.307 μm
Size of pork fat globules, Mean ([2]; astaxanthin dose 7.0 per 30 g of pork fat): 7.9 μm
Size of pork fat globules, Mean ([2]; astaxanthin dose 10.0 per 30 g of pork fat): 8.692 μm
Increase in the pork fat globules diameter ([2]; maximum doses): 50%
Increase of beef fat globules diameter [3]: 2.5 folds
Decrease of dairy butter viscosity from size of the spread drops [4]: about 3
Oil volume needed to cover the surface of the water [5]: 15 mL
Reduction of melting time of dairy butter (Melting time at 37° C. [6]): more than 3.5 fold
Melting time of dairy butter (Melting time at 37° C. [6]; control 140 seconds): 38 s
Melting time of dark chocolate (Melting time at 37° C. [7]): 5 min
Reduction of thawing time of Olive oil ([8]; 0.3 mg per 1 ml of the oil): 11 fold
Thawing time of frozen Olive oil ([8]; 0.3 mg per 1 ml of the oil, controls 60 (lycopene) and 48 seconds (astaxanthin)): 4.3 s
Reduction of thawing time of Sunflower oil ([8]; 0.3 mg per 1 ml the oil): above 3 fold
Rate of heating of olive oil emulsion in water in the first 3 minutes ([9]; 50%:50%, 1 molecule lycopene to 67,000 or astaxanthin to 71,000 fatty acids, control 10° C.): 23 °C
Maximum temperature the emulsion could reach ([9]; water to olive oil 75%:25%, control 62° C.): 90 °C
Corneocyte desquamation levels at the end of the study ([10]; P=0.0075): clearly reduced in most volunteers
Lipid droplet size, day 29 vs day 0 ([10]; subgroup of obese subjects): statistically significant (P=0.0214) increase
Lipid droplet size, day 29 vs day 0 ([10]; whole group, P=0.0683): has not reached statistical significance
Microbial presence in RSSC samples ([10]; whole volunteer group): statistically significant (P=0.0367) decrease
